Assay results as given in US7868147B2, “Fluorescent probe” (Sekisui Medical Co., Ltd., priority 2003, dated 2011).

Columns and labels:
[1] = literature (Lindqvist et al., 1966); cited from earlier work
[2] = Maximum excitation and fluorescence wavelength of fluorescein derivatives; assay type: physicochemical; conditions: measured in 0.1 N aqueous NaOH
From the text: (§1) Correlation between fluorescence quantum yield and the oxidation potential of the benzene ring moiety of each compound prepared above was studied. As clearly shown by the results in the figure, the fluorescence quantum yield of each compound changed depending on the oxidation potential of the benzene ring moiety. In an alkaline solution at pH 13, the OH group of the xanthene ring dissociates its proton to become an anion, and under this condition, the compound whose oxidation potential is 1.20V or lower became almost non-fluorescent, whereas the compound whose oxidation potential is 1.65V or higher emitted fluorescence with a quantum yield of almost 1. Between the two values, it was observed that the quantum yield decreases according to the decrease in the oxidation potential. An oxidation potential of the benzene ring under the acidic condition at pH 3.4, which has an influence on fluorescence, is different from that under a basic condition, i.e., the compound whose oxidation potential is 1.60V or lower is almost no fluorescent, whereas the compound whose oxidation potential is 1.90V or higher emitted fluorescence with a quantum yield of almost 0.3. It is known that the OH group of the xanthene ring is protonated at pH 3.4, and under this condition, the quantum yield of Fluorescein is about 0.3.

[3] = Oxidation potential of the benzene ring moiety (PET donor); assay type: physicochemical; conditions: 0.1 M acetonitrile containing tetrabutylammonium perchlorate (TBAP)
From the text: For the selection of a combination of R^1 and R^2, information of the electron density of the benzene ring to which they bind may be utilized. Information of the electron density of the benzene ring is easily available, for example, by calculating oxidation potential of said benzene ring according to a quantum chemical means. A reduction of the oxidation potential of said benzene ring means an increase of the electron density of said benzene ring, which corresponds to an elevation of HOMO orbital energy. For example, HOMO energy of said benzene ring moiety can be determined by a density functional theory (B3LYP/6-31G(d)). All the oxidation potentials described in the specification are indicated as values obtained with a saturated calomel electrode as a reference electrode, of which base line is different by about 0.24 V from that used for values obtained with a silver/silver nitrate electrode (Ag/Ag^+) as a reference electrode.
as §1

[4] = Fluorescence quantum yield; assay type: physicochemical; conditions: for Φfl (pH 3.4): pH 3.4, xanthene OH protonated; for Φfl (pH 13): pH 13, xanthene OH deprotonated
From the text: as §1

[5] = Fluorescence quantum yield; assay type: physicochemical; conditions: 100 mM sodium phosphate buffer

| Maximum excitation wavelength [2] [nm] | Maximum fluorescence wavelength [2] [nm] | Oxidation potential [3] [V vs SCE] | Φfl (pH 3.4) [4] | Φfl (pH 13) [4] | Φfl ([5]; pH 7.4) | Φfl ([5]; pH 9.0) | SMILES | fluorescence quantum yield relative to fluorescein [1] |
| --- | --- | --- | --- | --- | --- | --- | --- | --- |
| 491 | 510 | 2.19 | 0.319 | 0.847 |  |  | Cc1ccccc1-c1c2ccc(=O)cc-2oc2cc(O)ccc12 [Compound 1] |  |
| 491 | 510 | 2.08 | 0.307 | 0.865 |  |  | Cc1ccc(-c2c3ccc(=O)cc-3oc3cc(O)ccc23)c(C)c1 [Compound 2] |  |
| 492 | 509 | 1.66 | 0.010 | 0.840 |  |  | COc1ccc(-c2c3ccc(=O)cc-3oc3cc(O)ccc23)c(C)c1 [Compound 5] |  |
| 494 | 514 | 1.57 | 0.004 | 0.500 |  |  | COc1ccc(C)cc1-c1c2ccc(=O)cc-2oc2cc(O)ccc12 [Compound 6] |  |
|  |  |  |  |  |  | 0.87 | COC(=O)COc1ccc(-c2c3ccc(=O)cc-3oc3cc(O)ccc23)c(C)c1 [Compound 15] |  |
|  |  |  |  |  | 0.069 |  | COC(=O)COc1ccc(-c2c3ccc(=O)cc-3oc3cc(O[C@@H]4OC(COC(C)=O)[C@H](OC(C)=O)C(OC(C)=O)C4OC(C)=O)ccc23)c(C)c1 (stereo partly shown) [Compound 16] |  |
|  |  |  |  |  |  | 0.82 | COC(=O)CCCCOc1ccc(-c2c3ccc(=O)cc-3oc3cc(O)ccc23)c(C)c1 [Compound 17] |  |
|  |  |  |  |  | 0.005 |  | COC(=O)CCCCOc1ccc(-c2c3ccc(=O)cc-3oc3cc(O[C@@H]4OC(COC(C)=O)[C@H](OC(C)=O)C(OC(C)=O)C4OC(C)=O)ccc23)c(C)c1 (stereo partly shown) [Compound 18] |  |

Further lines, the molecule ahead of its results:

| SMILES | Maximum excitation wavelength [2] [nm] | Maximum fluorescence wavelength [2] [nm] | Oxidation potential [3] [V vs SCE] | Φfl (pH 3.4) [4] | Φfl (pH 13) [4] | Φfl ([5]; pH 7.4) | Φfl ([5]; pH 9.0) | fluorescence quantum yield relative to fluorescein [1] |
| --- | --- | --- | --- | --- | --- | --- | --- | --- |
| O=c1ccc2c(-c3ccccc3)c3ccc(O)cc3oc-2c1 [6-Hydroxy-9-phenylfluorone] |  |  |  |  |  |  |  | lower fluorescence quantum yield |
| Cc1ccc(C)c(-c2c3ccc(=O)cc-3oc3cc(O)ccc23)c1 [Compound 3] | 491 | 510 | 1.98 | 0.319 | 0.887 |  |  |  |
| COc1ccccc1-c1c2ccc(=O)cc-2oc2cc(O)ccc12 [Compound 4] | 494 | 515 | 1.75 | 0.076 | 0.860 |  |  |  |
| COc1ccc(-c2c3ccc(=O)cc-3oc3cc(O)ccc23)c(OC)c1 [Compound 7] | 494 | 513 | 1.44 | 0.001 | 0.200 |  |  |  |
| COc1ccc(OC)c(-c2c3ccc(=O)cc-3oc3cc(O)ccc23)c1 [Compound 8] | 494 | 512 | 1.26 | 0.000 | 0.010 |  |  |  |
| COc1ccc(-c2c3ccc(=O)cc-3oc3cc(OP(=O)(O)O)ccc23)c(C)c1 [Compound 11] |  |  |  |  |  | 0.029 |  |  |
